The test system of assay [1] is ALOMY. Description: Pre-emergence herbicidal action against ALOMY. It counts as in vivo, Alopecurus myosuroides. The following applies: application rate 80 g/ha, scored visually after about 3 weeks vs untreated controls (100% = plants have died, 0% = like control plants). The source says: (§1) 1. Pre-emergence herbicidal action against harmful plants and crop plant compatibility Seeds of monocotyledonous and dicotyledonous weed plants and crop plants are placed in plastic or wood-fibre pots and covered with soil. The compounds of the invention, formulated in the form of wettable powders (WP) or as emulsion concentrates (EC), are then applied onto the surface of the covering soil as aqueous suspension or emulsion with addition of 0.5% additive at a water application rate of 600 l/ha (converted). After the treatment, the pots are placed in a greenhouse and kept under good growth conditions for the trial plants. After about 3 weeks, the effect of the preparations is scored visually in comparison with untreated controls as percentages. For example, 100% activity=the plants have died, 0% activity=like control plants. [table]

The test system of the next assay is LOLRI. Description: Post-emergence herbicidal action against LOLRI. It counts as in vivo, Lolium rigidum. Particulars: application rate 80 g/ha, rated visually after about 3 weeks. The method in brief: (§2)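 Foliar application at 600 l/ha water, 0.5% additive, WP or EC formulation; plants at one-leaf stage in greenhouse sandy loam pots. Scored visually ~3 weeks post-treatment, 0–100% relative to untreated plants.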

In assay [2] the test system is STEME. Briefly: Pre-emergence herbicidal action against STEME. It counts as in vivo, Stellaria media. Particulars: application rate 80 g/ha.
Source text: as §1

Assay [3] concerns VIOTR. Description: Pre-emergence herbicidal action against VIOTR. It counts as in vivo, Viola tricolor. Particulars: application rate 80 g/ha.
Source text: as §1

Assay [4] concerns HORMU. Description: Pre-emergence herbicidal action against HORMU. It counts as in vivo, Hordeum murinum. Particulars: application rate 80 g/ha.
Source text: as §1

Assay [5] concerns HORMU. Briefly: Post-emergence herbicidal action against HORMU. In kind it is in vivo, Hordeum murinum. The following applies: application rate 80 g/ha. In a few lines: as §2
Assay [6] relates to AMARE. Briefly: Pre-emergence herbicidal action against AMARE. It counts as in vivo, Amaranthus retroflexus. The following applies: application rate 80 g/ha.
Source text: as §1

The test system of assay [7] is STEME. Description: Post-emergence herbicidal action against STEME. In kind it is in vivo, Stellaria media. Particulars: application rate 80 g/ha, rated visually about 3 weeks after treatment. The method in brief:
as §2

The subject of assay [8] is AVEFA. Briefly: Post-emergence herbicidal action against AVEFA. It counts as in vivo, Avena fatua. Particulars: application rate 80 g/ha, rated visually after about 3 weeks. The method in brief:
as §2

For assay [9], the system named is ALOMY. Description: Post-emergence herbicidal action against ALOMY. It counts as in vivo, Alopecurus myosuroides. Particulars: application rate 80 g/ha, rated visually after about 3 weeks. In a few lines:
as §2

A further assay has as its system POLCO. Description: Post-emergence herbicidal action against POLCO. In kind it is in vivo, Polygonum convolvulus. Particulars: application rate 80 g/ha, rated visually about 3 weeks after treatment. The method in brief:
as §2

The test system of a further assay is SETVI. Description: Post-emergence herbicidal action against SETVI. In kind it is in vivo, Setaria viridis. The following applies: application rate 80 g/ha, rated visually after about 3 weeks. In a few lines: as §2
Assay [10] has as its system AMARE. Description: Post-emergence herbicidal action against AMARE. In kind it is in vivo, Amaranthus retroflexus. Particulars: application rate 80 g/ha, rated visually about 3 weeks after treatment. The method in brief:
as §2

Another assay deals with PHBPU. Description: Post-emergence herbicidal action against PHBPU. In kind it is in vivo, Pharbitis purpurea. The following applies: application rate 80 g/ha, rated visually about 3 weeks after treatment. In a few lines: as §2
Assay [11] deals with VIOTR. Description: Post-emergence herbicidal action against VIOTR. It counts as in vivo, Viola tricolor. Particulars: application rate 80 g/ha, rated visually about 3 weeks after treatment. The method in brief: as §2
A further assay relates to ABUTH. Briefly: Post-emergence herbicidal action against ABUTH. In kind it is in vivo, Abutilon theophrasti. Particulars: application rate 80 g/ha, rated visually about 3 weeks after treatment. The method in brief: as §2
The test system of a further assay is ECHCG. Briefly: Post-emergence herbicidal action against ECHCG. It counts as in vivo, Echinochloa crus-galli. Particulars: application rate 80 g/ha, rated visually after about 3 weeks. The method in brief:
as §2

The test system of the next assay is VERPE. Description: Post-emergence herbicidal action against VERPE. Particulars: application rate 80 g/ha. In kind it is in vivo, Veronica persica. In a few lines:
as §2

The next assay deals with MATIN. Description: Post-emergence herbicidal action against MATIN. In kind it is in vivo, Matricaria inodora. Particulars: application rate 80 g/ha, rated visually about 3 weeks after treatment. The method in brief: as §2
Assay [12] concerns AVEFA. Briefly: Pre-emergence herbicidal action against AVEFA. It counts as in vivo, Avena fatua. The following applies: application rate 80 g/ha, scored visually after about 3 weeks vs untreated controls (100% = plants have died, 0% = like control plants).
Source text: as §1

This is an account of results in patent publication US12319664B2, “Herbicidally active 3-phenylisoxazoline-5-carboxamides of cyclopentenylcarboxylic acid derivatives” (Bayer Aktiengesellschaft, priority 2018, dated 2025).

As to `CONC(=O)C1=CC[C@@H](NC(=O)C2(C)CC(c3cccc(F)c3)=NO2)C1` (mixture of isomers) [IV-03, (5SR)-3-(3-Fluorophenyl)-N-[(1R)-3-[(methoxyamino)carbonyl]cyclopent-3-en-1-yl]-5-methyl-4H-1,2-oxazole-5-carboxamide], the “Herbicidal action against [%] ALOMY” value in the assay with ALOMY [1] turned out to be 90%. For the same molecule, the “Herbicidal action against [%] LOLRI” value in the assay on LOLRI is 90%.

Regarding `CC(C)ONC(=O)[C@H]1C=C[C@@H](NC(=O)C2(C)CC(c3cccc(F)c3)=NO2)C1` (some centres unmarked) [II-05], the “Herbicidal action against [%] STEME” value with STEME [2] came out at 90%.

In the case of `CCONC(=O)[C@H]1C=C[C@@H](NC(=O)C2(C)CC(c3cccc(F)c3)=NO2)C1` (some centres unmarked) [II-03], the “Herbicidal action against [%] VIOTR” value in the assay with VIOTR [3] was 90%.

For the molecule `CCOC(=O)C1=CC[C@@H](NC(=O)C2(C)CC(c3cccc(F)c3)=NO2)C1` (some centres unmarked) [III-05], the “Herbicidal action against [%] HORMU” value stood at 80% in the assay on HORMU [4] and 90% with HORMU [5]. In addition, the “Herbicidal action against [%] LOLRI” value in the assay with LOLRI was 80%.

Take `CCOC(=O)[C@H]1C=C[C@@H](NC(=O)C2(C)CC(c3cccc(F)c3)=NO2)C1` (some centres unmarked) [Example I-005]: the “Herbicidal action against [%] AMARE” value in the assay on AMARE [6] is 80%.

`COC(=O)[C@@H]1C=C[C@H](NC(=O)C2(C(F)(F)F)CC(c3cc(F)cc(C#N)c3)=NO2)C1` (single isomer, unassigned) [Example I-098]: the “Herbicidal action against [%] STEME” value with STEME [7] was found to be 90%. Further, the “Herbicidal action against [%] HORMU” value in the assay with HORMU [5] was found to be 90%. The “Herbicidal action against [%] AVEFA” value in the assay on AVEFA [8] stood at 100%. The “Herbicidal action against [%] ALOMY” value in the assay with ALOMY [9] is on record as 100%. For the same molecule, the “Herbicidal action against [%] POLCO” value in the assay on POLCO was 80%. Further, the “Herbicidal action against [%] LOLRI” value in the assay with LOLRI worked out at 90%. In the assay on SETVI, the “Herbicidal action against [%] SETVI” value is 80%. Further, the “Herbicidal action against [%] AMARE” value with AMARE [10] amounted to 80%. Further, the “Herbicidal action against [%] PHBPU” value in the assay on PHBPU was found to be 80%. For the same molecule, the “Herbicidal action against [%] VIOTR” value with VIOTR [11] was 80%. Besides, the “Herbicidal action against [%] ABUTH” value in the assay with ABUTH came out at 80%. Besides, the “Herbicidal action against [%] ECHCG” value with ECHCG is on record as 90%. The “Herbicidal action against [%] VERPE” value in the assay on VERPE stood at 80%. The “Herbicidal action against [%] MATIN” value with MATIN stood at 80%.

Consider `CN(C)NC(=O)C1=CCC(NC(=O)C2(C)CC(c3cccc(F)c3)=NO2)C1` (mixture of isomers) [IV-05], for which the “Herbicidal action against [%] VIOTR” value in the assay on VIOTR [3] stood at 100%. In addition, the “Herbicidal action against [%] AVEFA” value with AVEFA [12] is listed as 80%. Besides, the “Herbicidal action against [%] ALOMY” value with ALOMY [1] was 80%. In addition, the “Herbicidal action against [%] STEME” value with STEME [2] is 90%.
